System: small intestine
Assay: Histology study of villi length and crypt depth (H&E sections, imagescope)
Format: in vivo, female CD-1 mice
Settings: after administration vs without treatment, FIGS. 1-3; for villus height: small intestine
Experimental: Various doses of GLP-2 peptibody B264 were analyzed to assess the pharmacodynamic plateau, with the primary endpoint a measurement of the small intestinal weight relative to the total body weight and a histology study of the length of villi. 11 groups of six female CD-1 mice each were formed. [table] For histology, four micron paraffin sections were prepared for H&E and Ki67 IHC staining. After whole slide scanning, an imagescope was used to measure villi length and crypt depth, and to analyze Ki67. The antibody against Ki67 is a rabbit antibody sold by Adcam®, catalog number ab 616667. The antibody was used at a working concentration of 1:100 and was detected using a Leica® Refine Kit. […] See, e.g., Example 13 of U.S. Provisional Application No. 62/548,601, filed Aug. 22, 2017 for more data and examples with respect to GLP-2 peptibody B264, GLP-2 peptibody […], and a GLP-2[[…]] peptide.

Molecule	crypt depth in the small intestine	villus height
CC[C@H](C)[C@H](NC(=O)[C@H](Cc1ccccc1)NC(=O)[C@H](CC(=O)O)NC(=O)[C@H](CCCNC(=N)N)NC(=O)[C@H](C)NC(=O)[C@H](C)NC(=O)[C@H](CC(C)C)NC(=O)[C@H](CC(N)=O)NC(=O)[C@H](CC(=O)O)NC(=O)[C@H](CC(C)C)NC(=O)[C@@H](NC(=O)[C@@H](NC(=O)[C@H](CC(N)=O)NC(=O)[C@H](CCSC)NC(=O)[C@H](CCC(=O)O)NC(=O)[C@H](CC(=O)O)NC(=O)[C@H](CO)NC(=O)[C@H](Cc1ccccc1)NC(=O)[C@H](CO)NC(=O)CNC(=O)[C@H](CC(=O)O)NC(=O)CNC(=O)[C@@H](N)Cc1c[nH]cn1)[C@@H](C)O)[C@@H](C)CC)C(=O)N[C@@H](CC(N)=O)C(=O)N[C@@H](Cc1c[nH]c2ccccc12)C(=O)N[C@@H](CC(C)C)C(=O)N[C@H](C(=O)N[C@@H](CCC(N)=O)C(=O)N[C@H](C(=O)N[C@@H](CCCCN)C(=O)N[C@H](C(=O)N[C@H](C(=O)N[C@@H](CC(=O)O)C(=O)O)[C@@H](C)O)[C@@H](C)CC)[C@@H](C)O)[C@@H](C)CC [h(Gly2)GLP-2, teduglutide, reference compound]	increased crypt depth	increased villus height
GLP-2 peptibody K274: GLP-2 peptibody having the amino acid sequence of SEQ ID NO: 4 (GLP-2[A2G]-linker-IgG1 Fc fusion)	increased crypt depth	increased villus height
